PubChem BioAssay (NCI)
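GI50 marks 50% less growth. TGI marks complete inhibition of growth.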

Assays:
Assay in all cases: growth of human tumour cells (NCI), 384-well format
786-0 renal = system: 786-0 renal
A498 renal = system: A498 renal
A549 NSCLC = system: A549 NSCLC
ACHN renal = system: ACHN renal
BT-549 breast = system: BT-549 breast
CAKI-1 renal = system: CAKI-1 renal
CCRF-CEM leukemia = system: CCRF-CEM leukemia
COLO 205 colon = system: COLO 205 colon
DU-145 prostate = system: DU-145 prostate
EKVX NSCLC = system: EKVX NSCLC
HCC-2998 colon = system: HCC-2998 colon
HCT-116 colon = system: HCT-116 colon
HCT-15 colon = system: HCT-15 colon
HL-60(TB) leukemia = system: HL-60(TB) leukemia
HOP-62 NSCLC = system: HOP-62 NSCLC
HOP-92 NSCLC = system: HOP-92 NSCLC
HS 578T breast = system: HS 578T breast
HT29 colon = system: HT29 colon
IGROV1 ovarian = system: IGROV1 ovarian
K-562 leukemia = system: K-562 leukemia
KM12 colon = system: KM12 colon
LOX IMVI melanoma = system: LOX IMVI melanoma
M14 melanoma = system: M14 melanoma
MALME-3M melanoma = system: MALME-3M melanoma
MCF7 breast = system: MCF7 breast
MDA-MB-231 breast = system: MDA-MB-231 breast
MDA-MB-435 melanoma = system: MDA-MB-435 melanoma
MDA-MB-468 breast = system: MDA-MB-468 breast
MOLT-4 leukemia = system: MOLT-4 leukemia
NCI-H226 lung = system: NCI-H226 lung
NCI-H23 lung = system: NCI-H23 lung
NCI-H322M lung = system: NCI-H322M lung
NCI-H460 NSCLC = system: NCI-H460 NSCLC
NCI-H522 lung = system: NCI-H522 lung
NCI/ADR-RES ovarian = system: NCI/ADR-RES ovarian
OVCAR-3 ovarian = system: OVCAR-3 ovarian
OVCAR-4 ovarian = system: OVCAR-4 ovarian
OVCAR-5 ovarian = system: OVCAR-5 ovarian
OVCAR-8 ovarian = system: OVCAR-8 ovarian
PC-3 prostate = system: PC-3 prostate
RPMI-8226 leukemia = system: RPMI-8226 leukemia
RXF 393 renal = system: RXF 393 renal
SF-268 CNS = system: SF-268 CNS
SF-295 CNS = system: SF-295 CNS
SF-539 CNS = system: SF-539 CNS
SK-MEL-28 melanoma = system: SK-MEL-28 melanoma
SK-MEL-5 melanoma = system: SK-MEL-5 melanoma
SK-OV-3 ovarian = system: SK-OV-3 ovarian
SN12C renal = system: SN12C renal
SNB-19 CNS = system: SNB-19 CNS
SNB-75 CNS = system: SNB-75 CNS
SR leukemia = system: SR leukemia
SW-620 colon = system: SW-620 colon
T-47D breast = system: T-47D breast
TK-10 renal = system: TK-10 renal
U251 glioblastoma = system: U251 glioblastoma
UACC-257 melanoma = system: UACC-257 melanoma
UO-31 renal = system: UO-31 renal
SK-MEL-2 melanoma = system: SK-MEL-2 melanoma
UACC-62 melanoma = system: UACC-62 melanoma

## NC(=O)c1ccc(-c2nc(-c3ccc4c(c3)OCO4)c(-c3ccccn3)[nH]2)cc1
786-0 renal
  GI50: 28 µM
  TGI: 81.6 µM
A498 renal
  GI50: 23.4 µM
  TGI: 56.3 µM
A549 NSCLC
  GI50: 21.1 µM
  TGI: 57.1 µM
ACHN renal
  GI50: 44.7 µM
  TGI: > 100 µM
BT-549 breast
  GI50: 17.5 µM
  TGI: 64.3 µM
CAKI-1 renal
  GI50: 28.4 µM
  TGI: 72.9 µM
CCRF-CEM leukemia
  GI50: 18.1 µM
  TGI: 38.7 µM
COLO 205 colon
  GI50: 21.7 µM
  TGI: 39.3 µM
DU-145 prostate
  GI50: 23.7 µM
  TGI: 52.1 µM
EKVX NSCLC
  GI50: 14.3 µM
  TGI: 59.1 µM
HCC-2998 colon
  GI50: 16.7 µM
  TGI: 36.3 µM
HCT-116 colon
  GI50: 16.9 µM
  TGI: 32.2 µM
HCT-15 colon
  GI50: 18.9 µM
  TGI: 36 µM
HL-60(TB) leukemia
  GI50: 17.8 µM
  TGI: 31.7 µM
HOP-62 NSCLC
  GI50: 18.5 µM
  TGI: 43 µM
HOP-92 NSCLC
  GI50: 30.7 µM
  TGI: 95.7 µM
HS 578T breast
  GI50: 25.3 µM
  TGI: 60.1 µM
HT29 colon
  GI50: 19.9 µM
  TGI: 44.9 µM
IGROV1 ovarian
  GI50: 19.6 µM
  TGI: 46.1 µM
K-562 leukemia
  GI50: 35.3 µM
  TGI: > 100 µM
KM12 colon
  GI50: 27 µM
  TGI: 73.2 µM
LOX IMVI melanoma
  GI50: 14.2 µM
  TGI: 29.4 µM
M14 melanoma
  GI50: 24.4 µM
  TGI: 83.2 µM
MALME-3M melanoma
  GI50: 29.7 µM
  TGI: 52.4 µM
MCF7 breast
  GI50: 20.6 µM
  TGI: 49.1 µM
MDA-MB-231 breast
  GI50: 22.2 µM
  TGI: 83 µM
MDA-MB-435 melanoma
  GI50: 39.6 µM
  TGI: > 100 µM
MDA-MB-468 breast
  GI50: 17.9 µM
  TGI: 36.9 µM
MOLT-4 leukemia
  GI50: 16.5 µM
  TGI: 30.3 µM
NCI-H226 lung
  GI50: 17.2 µM
  TGI: 32.7 µM
NCI-H23 lung
  GI50: 22 µM
  TGI: 47.7 µM
NCI-H322M lung
  GI50: 27.9 µM
  TGI: 90.6 µM
NCI-H460 NSCLC
  GI50: 14.4 µM
  TGI: 28.1 µM
NCI-H522 lung
  GI50: 24.2 µM
  TGI: 46.1 µM
NCI/ADR-RES ovarian
  GI50: 16.4 µM
  TGI: 33.3 µM
OVCAR-3 ovarian
  GI50: 21.6 µM
  TGI: 47.1 µM
OVCAR-4 ovarian
  GI50: 26.7 µM
  TGI: 71.6 µM
OVCAR-5 ovarian
  GI50: 26.6 µM
  TGI: 81.9 µM
OVCAR-8 ovarian
  GI50: 22.6 µM
  TGI: 52.2 µM
PC-3 prostate
  GI50: 27.2 µM
  TGI: > 100 µM
RPMI-8226 leukemia
  GI50: 15.7 µM
  TGI: 30.4 µM
RXF 393 renal
  GI50: 11.9 µM
  TGI: 26.8 µM
SF-268 CNS
  GI50: 38 µM
  TGI: > 100 µM
SF-295 CNS
  GI50: 20.2 µM
  TGI: 43.3 µM
SF-539 CNS
  GI50: 41.8 µM
  TGI: > 100 µM
SK-MEL-28 melanoma
  GI50: 32.9 µM
  TGI: 86.5 µM
SK-MEL-5 melanoma
  GI50: 7.13 µM
  TGI: 19.5 µM
SK-OV-3 ovarian
  GI50: 24.3 µM
  TGI: 64.9 µM
SN12C renal
  GI50: 39.1 µM
  TGI: > 100 µM
SNB-19 CNS
  GI50: 40.1 µM
  TGI: > 100 µM
SNB-75 CNS
  GI50: 42.4 µM
  TGI: > 100 µM
SR leukemia
  GI50: 17.5 µM
  TGI: 32.4 µM
SW-620 colon
  GI50: 60.6 µM
  TGI: > 100 µM
T-47D breast
  GI50: 20.4 µM
  TGI: 42.4 µM
TK-10 renal
  GI50: 24.6 µM
  TGI: 60.4 µM
U251 glioblastoma
  GI50: 35.2 µM
  TGI: > 100 µM
UACC-257 melanoma
  GI50: 22.4 µM
  TGI: 43 µM
UO-31 renal
  GI50: 42.6 µM
  TGI: > 100 µM

## Cc1nn(C)c(COc2ccc(N3CCN(S(=O)(=O)N(C)C)CC3)cc2)c1-c1cccc2c(CCCOc3cccc4ccccc34)c(C(=O)O)n(CCN3CCOCC3)c12
786-0 renal
  GI50: 5.67 µM
  TGI: 13.8 µM
A498 renal
  GI50: 3.63 µM
  TGI: 11.1 µM
A549 NSCLC
  GI50: 9.44 µM
  TGI: 23.3 µM
ACHN renal
  GI50: 6.55 µM
  TGI: 17.6 µM
BT-549 breast
  GI50: 3.49 µM
  TGI: 8.64 µM
CAKI-1 renal
  GI50: 6.88 µM
  TGI: 17.6 µM
CCRF-CEM leukemia
  GI50: 2.41 µM
  TGI: 4.78 µM
COLO 205 colon
  GI50: 4.33 µM
  TGI: 13.3 µM
DU-145 prostate
  GI50: 6.23 µM
  TGI: 16.2 µM
EKVX NSCLC
  GI50: 4.87 µM
  TGI: 16.7 µM
HCC-2998 colon
  GI50: 3.09 µM
  TGI: 7.88 µM
HCT-116 colon
  GI50: 2.87 µM
  TGI: 8.51 µM
HCT-15 colon
  GI50: 12.1 µM
  TGI: 25.5 µM
HL-60(TB) leukemia
  GI50: 2.12 µM
  TGI: 3.58 µM
HOP-62 NSCLC
  GI50: 4.22 µM
  TGI: 11.3 µM
HOP-92 NSCLC
  GI50: 3.32 µM
  TGI: 8.76 µM
HT29 colon
  GI50: 2.72 µM
  TGI: 7.13 µM
IGROV1 ovarian
  GI50: 3.11 µM
  TGI: 8.58 µM
K-562 leukemia
  GI50: 4.21 µM
  TGI: 13.8 µM
KM12 colon
  GI50: 4.51 µM
  TGI: 12.2 µM
LOX IMVI melanoma
  GI50: 5.6 µM
  TGI: 13.5 µM
M14 melanoma
  GI50: 4.13 µM
  TGI: 9.35 µM
MALME-3M melanoma
  GI50: 3.73 µM
  TGI: 10.5 µM
MCF7 breast
  GI50: 3.06 µM
  TGI: 8.69 µM
MDA-MB-231 breast
  GI50: 4.49 µM
  TGI: 13.3 µM
MDA-MB-435 melanoma
  GI50: 4.32 µM
  TGI: 14.6 µM
MDA-MB-468 breast
  GI50: 2.3 µM
  TGI: 4.43 µM
MOLT-4 leukemia
  GI50: 2.02 µM
  TGI: 3.66 µM
NCI-H226 lung
  GI50: 3.65 µM
  TGI: 10.3 µM
NCI-H23 lung
  GI50: 3.54 µM
  TGI: 9.43 µM
NCI-H322M lung
  GI50: 6.07 µM
  TGI: 14.6 µM
NCI-H460 NSCLC
  GI50: 5.22 µM
  TGI: 14.9 µM
NCI-H522 lung
  GI50: 2.64 µM
  TGI: 5.42 µM
NCI/ADR-RES ovarian
  GI50: 32.8 µM
  TGI: > 92.7 µM
OVCAR-3 ovarian
  GI50: 2.32 µM
  TGI: 5.26 µM
OVCAR-4 ovarian
  GI50: 3.43 µM
  TGI: 9.25 µM
OVCAR-5 ovarian
  GI50: 5.75 µM
  TGI: 16.2 µM
OVCAR-8 ovarian
  GI50: 3.73 µM
  TGI: 12.9 µM
PC-3 prostate
  GI50: 3.72 µM
  TGI: 10.9 µM
RPMI-8226 leukemia
  GI50: 1.76 µM
  TGI: 3.16 µM
RXF 393 renal
  GI50: 1.79 µM
  TGI: 5.04 µM
SF-268 CNS
  GI50: 5.48 µM
  TGI: 15.2 µM
SF-295 CNS
  GI50: 2.94 µM
  TGI: 7.54 µM
SF-539 CNS
  GI50: 3.57 µM
  TGI: 9.98 µM
SK-MEL-2 melanoma
  GI50: 2.14 µM
  TGI: 3.92 µM
SK-MEL-28 melanoma
  GI50: 3.07 µM
  TGI: 7.47 µM
SK-MEL-5 melanoma
  GI50: 2.92 µM
  TGI: 7.26 µM
SK-OV-3 ovarian
  GI50: 5.61 µM
  TGI: 13.6 µM
SN12C renal
  GI50: 3.55 µM
  TGI: 12.7 µM
SNB-19 CNS
  GI50: 3.77 µM
  TGI: 12.8 µM
SNB-75 CNS
  GI50: 3.52 µM
  TGI: 8.36 µM
SR leukemia
  GI50: 1.57 µM
  TGI: 2.93 µM
SW-620 colon
  GI50: 3.46 µM
  TGI: 10.6 µM
T-47D breast
  GI50: 3.6 µM
  TGI: 10.8 µM
TK-10 renal
  GI50: 4.94 µM
  TGI: 14.1 µM
U251 glioblastoma
  GI50: 3.67 µM
  TGI: 11.8 µM
UACC-257 melanoma
  GI50: 2.99 µM
  TGI: 7.34 µM
UACC-62 melanoma
  GI50: 2.67 µM
  TGI: 5.65 µM
UO-31 renal
  GI50: 9.73 µM
  TGI: 21.5 µM
